Source: ChEMBL document CHEMBL3600303, “The N-Terminal T-T Motif of a Third-Generation HIV-1 Fusion Inhibitor Is Not Required for Binding Affinity and Antiviral Activity” (J Med Chem, 2015)
The source made the active and inactive calls. No cut-off for these calls is given here.

Assays:
[1] = target: Envelope glycoprotein gp160 (Human immunodeficiency virus type 1 group M subtype B (isolate HXB2)(HIV-1)) (UniProt P04578); test: Binding affinity to HIV-1 HXB2 gp41 N-terminal heptad repeat assessed as thermostability of compound at 10 uM after 30 mins by CD spectroscopic analysis; conditions: Human immunodeficiency virus 1
[2] = tested on: Human immunodeficiency virus 1; test: Antiviral activity against wild type HIV1 NL4-3 infected in human TZM-bl cells assessed as inhibition of viral replication after 2 days by luciferase reporter gene assay; format: functional, organism-based; conditions: Human immunodeficiency virus 1, NL4-3, TZM-bl, 48 h
[3] = tested on: Human immunodeficiency virus 1; test: Antiviral activity against HIV1 NL4-3 pseudovirus infected in human TZM-bl cells assessed as inhibition of viral entry into cells after 48 hrs by single-cycle infection assay; format: functional, organism-based; conditions: Human immunodeficiency virus 1, NL4-3, TZM-bl
[4] = tested on: Human immunodeficiency virus 1; test: Ratio of IC50 for ENF-resistant HIV1 NL4-3 harboring gp41 N-terminal heptad repeat I37T mutant to IC50 for wild type HIV1 NL4-3; format: functional
[5] = tested on: Human immunodeficiency virus 1; test: Antiviral activity against HIV-1 ZM214M.15 pseudovirus infected in human TZM-bl cells assessed as inhibition of viral entry into cells after 48 hrs by single-cycle infection assay; format: functional, organism-based; conditions: Human immunodeficiency virus 1, ZM214M.15, TZM-bl
[6] = tested on: Human immunodeficiency virus 1; test: Ratio of IC50 for ENF-resistant HIV1 NL4-3 harboring gp41 N-terminal heptad repeat Q40H mutant to IC50 for wild type HIV1 NL4-3; format: functional
[7] = tested on: Human immunodeficiency virus 1; test: Antiviral activity against ENF-resistant HIV1 NL4-3 harboring gp41 N-terminal heptad repeat D36G mutant infected in human TZM-bl cells assessed as inhibition of viral entry into cells after 48 hrs by single-cycle infection assay; format: functional, organism-based
[8] = tested on: Human immunodeficiency virus 1; test: Ratio of IC50 for ENF-resistant HIV1 NL4-3 harboring gp41 N-terminal heptad repeat D36S/V38M double mutant to IC50 for wild type HIV1 NL4-3; format: functional
[9] = target: Envelope glycoprotein gp160 (Human immunodeficiency virus type 1 group M subtype B (isolate HXB2)(HIV-1), UniProt P04578); test: Binding affinity to HIV-1 HXB2 gp41 N-terminal heptad repeat assessed as inhibition of 6-helix bundle formation after 30 mins by ELISA; set-up: species or system Human immunodeficiency virus 1
[10] = tested on: Human immunodeficiency virus 1; test: Antiviral activity against ENF-resistant HIV1 NL4-3 harboring gp41 N-terminal heptad repeat Q40H mutant infected in human TZM-bl cells assessed as inhibition of viral entry into cells after 48 hrs by single-cycle infection assay; format: functional, organism-based
[11] = Thermostability of the compound in PBS assessed as melting temperature at 20 uM by CD spectroscopic analysis; format: physicochemical; conditions: buffer
[12] = target: Envelope glycoprotein gp160 (Human immunodeficiency virus 1) (UniProt Q72502); test: Binding affinity to HIV1 NL4-3 gp41 N-terminal heptad repeat Q40H mutant after 30 mins by CD spectroscopic analysis
[13] = tested on: Envelope glycoprotein gp160 (Human immunodeficiency virus 1), Q72502 [V38A]; test: Binding affinity to HIV1 NL4-3 gp41 N-terminal heptad repeat V38A mutant after 30 mins by CD spectroscopic analysis
[14] = tested on: Human immunodeficiency virus 1; test: Ratio of IC50 for ENF-resistant HIV1 NL4-3 harboring gp41 N-terminal heptad repeat V38M mutant to IC50 for wild type HIV1 NL4-3; format: functional
[15] = tested on: Human immunodeficiency virus 1; test: Antiviral activity against ENF-resistant HIV1 NL4-3 harboring gp41 N-terminal heptad repeat N43K mutant infected in human TZM-bl cells assessed as inhibition of viral entry into cells after 48 hrs by single-cycle infection assay; format: functional, organism-based
[16] = tested on: Human immunodeficiency virus 1; test: Ratio of IC50 for ENF-resistant HIV1 NL4-3 harboring gp41 N-terminal heptad repeat I37T/N43K double mutant to IC50 for wild type HIV1 NL4-3; format: functional
[17] = tested on: Human immunodeficiency virus 1; test: Antiviral activity against ENF-resistant HIV1 NL4-3 harboring gp41 N-terminal heptad repeat V38A mutant infected in human TZM-bl cells assessed as inhibition of viral entry into cells after 48 hrs by single-cycle infection assay; format: functional, organism-based
[18] = tested on: Human immunodeficiency virus 1; test: Antiviral activity against HIV-1 SC42261.8 pseudovirus infected in human TZM-bl cells assessed as inhibition of viral entry into cells after 48 hrs by single-cycle infection assay; format: functional, organism-based; conditions: Human immunodeficiency virus 1, SC42261.8, TZM-bl
[19] = tested on: Human immunodeficiency virus 1; test: Antiviral activity against ENF-resistant HIV1 NL4-3 harboring gp41 N-terminal heptad repeat I37T/N43K double mutant infected in human TZM-bl cells assessed as inhibition of viral entry into cells after 48 hrs by single-cycle infection assay; format: functional, organism-based
[20] = tested on: Human immunodeficiency virus 1; test: Antiviral activity against HIV-1 pseudovirus harboring Q66R/N126K double mutant; format: functional, organism-based
[21] = tested on: Human immunodeficiency virus 1; test: Antiviral activity against ENF-resistant HIV1 NL4-3 harboring gp41 N-terminal heptad repeat D36S/V38M double mutant infected in human TZM-bl cells assessed as inhibition of viral entry into cells after 48 hrs by single-cycle infection assay; format: functional, organism-based
[22] = target: Envelope glycoprotein gp160 (Human immunodeficiency virus 1) (UniProt Q72502); test: Binding affinity to HIV1 NL4-3 gp41 N-terminal heptad repeat V38A/N42T double mutant after 30 mins by CD spectroscopic analysis
[23] = tested on: Human immunodeficiency virus 1; test: Antiviral activity against wild type HIV-1; format: functional, organism-based
[24] = tested on: Human immunodeficiency virus 1; test: Antiviral activity against HIV-1 SF162 pseudovirus infected in human TZM-bl cells assessed as inhibition of viral entry into cells after 48 hrs by single-cycle infection assay; format: functional, organism-based; conditions: Human immunodeficiency virus 1, SF162, TZM-bl
[25] = target: Envelope glycoprotein gp160 (Human immunodeficiency virus type 1 group M subtype B (isolate HXB2)(HIV-1)) (UniProt P04578); test: Binding affinity to HIV-1 HXB2 gp41 N-terminal heptad repeat assessed as thermostability of protein-compound complex at 10 uM after 30 mins by CD spectroscopic analysis; conditions: Human immunodeficiency virus 1
[26] = tested on: Human immunodeficiency virus 1; test: Antiviral activity against wild type HIV1 NL4-3 infected in human TZM-bl cells assessed as inhibition of viral entry into cells after 48 hrs by single-cycle infection assay; format: functional, organism-based; conditions: Human immunodeficiency virus 1, NL4-3, TZM-bl
[27] = tested on: Human immunodeficiency virus 1; test: Ratio of IC50 for ENF-resistant HIV1 NL4-3 harboring gp41 N-terminal heptad repeat D36G mutant to IC50 for wild type HIV1 NL4-3; format: functional
[28] = tested on: Human immunodeficiency virus 1; test: Antiviral activity against ENF-resistant HIV1 NL4-3 harboring gp41 N-terminal heptad repeat V38A/N42T double mutant infected in human TZM-bl cells assessed as inhibition of viral entry into cells after 48 hrs by single-cycle infection assay; format: functional, organism-based
[29] = tested on: Human immunodeficiency virus 1; test: Ratio of IC50 for ENF-resistant HIV1 NL4-3 harboring gp41 N-terminal heptad repeat N43K mutant to IC50 for wild type HIV1 NL4-3; format: functional
[30] = tested on: Human immunodeficiency virus 1; test: Ratio of IC50 for ENF-resistant HIV1 NL4-3 harboring gp41 N-terminal heptad repeat V38A mutant to IC50 for wild type HIV1 NL4-3; format: functional
[31] = tested on: Human immunodeficiency virus 1; test: Antiviral activity against ENF-resistant HIV1 NL4-3 harboring gp41 N-terminal heptad repeat I37T mutant infected in human TZM-bl cells assessed as inhibition of viral entry into cells after 48 hrs by single-cycle infection assay; format: functional, organism-based
[32] = tested on: Human immunodeficiency virus 1; test: Antiviral activity against ENF-resistant HIV1 NL4-3 harboring gp41 N-terminal heptad repeat V38M mutant infected in human TZM-bl cells assessed as inhibition of viral entry into cells after 48 hrs by single-cycle infection assay; format: functional, organism-based
[33] = target: Envelope glycoprotein gp160 (Human immunodeficiency virus 1) (UniProt Q72502); test: Binding affinity to HIV1 NL4-3 gp41 N-terminal heptad repeat I37T mutant after 30 mins by CD spectroscopic analysis
[34] = target: Envelope glycoprotein gp160 (Human immunodeficiency virus 1) (UniProt Q72502); test: Binding affinity to HIV1 NL4-3 gp41 N-terminal heptad repeat N43K mutant after 30 mins by CD spectroscopic analysis
[35] = tested on: Human immunodeficiency virus 1; test: Ratio of IC50 for ENF-resistant HIV1 NL4-3 harboring gp41 N-terminal heptad repeat V38A/N42T double mutant to IC50 for wild type HIV1 NL4-3; format: functional
[36] = target: Envelope glycoprotein gp160 (Human immunodeficiency virus 1) (UniProt Q72502); test: Binding affinity to HIV1 NL4-3 gp41 N-terminal heptad repeat I37T/N43K double mutant after 30 mins by CD spectroscopic analysis
[37] = target: Envelope glycoprotein gp160 (Human immunodeficiency virus 1) (UniProt Q72502); test: Binding affinity to HIV1 NL4-3 gp41 N-terminal heptad repeat G36D mutant after 30 mins by CD spectroscopic analysis
[38] = tested on: Serum; test: Metabolic stability in Sprague-Dawley rat serum at 4 mg/kg, ip measured at 0.5 to 4 hrs post dose; format: ADME, organism-based; conditions: in vivo
[39] = tested on: Human immunodeficiency virus 1; test: Ratio of IC50 for ENF-resistant HIV1 NL4-3 harboring gp41 N-terminal heptad repeat V38M mutant to IC50 for ENF-resistant HIV1 NL4-3 harboring gp41 N-terminal heptad repeat D36G mutant; format: functional
[40] = tested on: Human immunodeficiency virus 1; test: Ratio of IC50 for ENF-resistant HIV1 NL4-3 harboring gp41 N-terminal heptad repeat I37T/N43K double mutant to IC50 for ENF-resistant HIV1 NL4-3 harboring gp41 N-terminal heptad repeat D36G mutant; format: functional
[41] = tested on: Human immunodeficiency virus 1; test: Ratio of IC50 for ENF-resistant HIV1 NL4-3 harboring gp41 N-terminal heptad repeat I37T mutant to IC50 for ENF-resistant HIV1 NL4-3 harboring gp41 N-terminal heptad repeat D36G mutant; format: functional
[42] = tested on: Human immunodeficiency virus 1; test: Ratio of IC50 for wild type HIV1 NL4-3 to IC50 for ENF-resistant HIV1 NL4-3 harboring gp41 N-terminal heptad repeat D36G mutant; format: functional
[43] = tested on: Human immunodeficiency virus 1; test: Ratio of IC50 for ENF-resistant HIV1 NL4-3 harboring gp41 N-terminal heptad repeat N43K mutant to IC50 for ENF-resistant HIV1 NL4-3 harboring gp41 N-terminal heptad repeat D36G mutant; format: functional
[44] = tested on: Human immunodeficiency virus 1; test: Ratio of IC50 for ENF-resistant HIV1 NL4-3 harboring gp41 N-terminal heptad repeat V38A/N42T double mutant to IC50 for ENF-resistant HIV1 NL4-3 harboring gp41 N-terminal heptad repeat D36G mutant; format: functional
[45] = tested on: Human immunodeficiency virus 1; test: Ratio of IC50 for ENF-resistant HIV1 NL4-3 harboring gp41 N-terminal heptad repeat D36S/V38M double mutant to IC50 for ENF-resistant HIV1 NL4-3 harboring gp41 N-terminal heptad repeat D36G mutant; format: functional
[46] = tested on: Human immunodeficiency virus 1; test: Ratio of IC50 for ENF-resistant HIV1 NL4-3 harboring gp41 N-terminal heptad repeat V38A mutant to IC50 for ENF-resistant HIV1 NL4-3 harboring gp41 N-terminal heptad repeat D36G mutant; format: functional
[47] = tested on: Human immunodeficiency virus 1; test: Ratio of IC50 for ENF-resistant HIV1 NL4-3 harboring gp41 N-terminal heptad repeat Q40H mutant to IC50 for ENF-resistant HIV1 NL4-3 harboring gp41 N-terminal heptad repeat D36G mutant; format: functional

Substance	IC50 [2] [nM]	IC50 [3] [nM]	Ratio IC50 [4]	Ratio IC50 [6]	IC50 [7] [nM]	Ratio IC50 [8]	IC50 [10] [nM]	Ratio IC50 [14]	IC50 [15] [nM]	Ratio IC50 [16]	IC50 [17] [nM]	IC50 [19] [nM]	IC50 [21] [nM]	IC50 [26] [nM]	Ratio IC50 [27]	IC50 [28] [nM]	Ratio IC50 [29]	Ratio IC50 [30]	IC50 [31] [nM]	IC50 [32] [nM]	other results
H-TTWEEWDKKIEEYTKKIEELIKKS-OH	26.1	46.8	–	–	–	–	–	–	–	–	–	–	–	–	–	–	–	–	–	–	Tm [1]: 66.3 °C
H-WEAWDRAIAEYAARIEALIRAAQEQQEKNEAALREL-OH	0.48	1.07	1.8	1.1	1.9	0.9	1.2	1.6	2.1	1.7	1.4	1.9	1	1.1	1.7	0.6	1.9	1.3	2	1.7	IC50 [5]: 0.73 nM; IC50 [9]: 77.4 nM; Tm [11]: 46.1 °C; Activity [12]: Active; Activity [13]: Active; IC50 [18]: 1.67 nM; IC50 [20]: 7 nM; Activity [22]: Active; IC50 [23]: 1.34 nM; IC50 [24]: 5.75 nM; Tm [25]: 81.2 °C; Activity [33]: Active; Activity [34]: Active; Ratio IC50 [35]: 0.6; Activity [36]: Active; Activity [37]: Active; Stability [38]: Stable
enfuvirtide	–	–	6.9	16.1	9.1	2.7	1450	3	467	>25	709	> 2250	240	90.2	0.1	> 2250	5.2	7.9	618	268	Ratio IC50 [39]: 29.4; Ratio IC50 [40]: 247.3; Ratio IC50 [41]: 68; Ratio IC50 [42]: 9.9; Ratio IC50 [43]: 51.3; Ratio IC50 [44]: 247.3; Ratio IC50 [45]: 26.4; Ratio IC50 [46]: 77.9; Ratio IC50 [35]: >25; Ratio IC50 [47]: 159.8
